# Publication PMC9414913, “Tyrosinase Inhibitors Derived from Chemical Constituents of Dianella ensifolia” (Plants, 2022)
# Target: mushroom tyrosinase (Agaricus bisporus, UniProt C7FF04)
# Experiment: In vitro mushroom tyrosinase inhibition assay
# Type: biochemical
# Details: compared with arbutin (positive control)
# Procedure: The mushroom tyrosinase inhibitory assay has been described in detail previously. Briefly, various concentrations of test compounds (100 μL) and 2 mM L-tyrosine (80 μL, Sigma-Aldrich, St. Louis, MO, USA) were mixed in 96-well plates. 20 μL of mushroom tyrosinase (1000 U/mL, Sigma-Aldrich, USA) was added to initiate the assay. The absorbance of the mixture was measured at 490 nm using a microplate reader (μQuant™, BioTek Winooski, VT, USA).
# Chain of mushroom tyrosinase (G1K3P4 entry or part of it): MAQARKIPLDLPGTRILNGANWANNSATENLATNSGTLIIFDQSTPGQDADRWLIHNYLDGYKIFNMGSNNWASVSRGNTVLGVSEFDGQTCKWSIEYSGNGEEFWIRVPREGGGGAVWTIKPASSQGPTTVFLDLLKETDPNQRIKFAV
# Chain of mushroom tyrosinase (C7FF04 2-392): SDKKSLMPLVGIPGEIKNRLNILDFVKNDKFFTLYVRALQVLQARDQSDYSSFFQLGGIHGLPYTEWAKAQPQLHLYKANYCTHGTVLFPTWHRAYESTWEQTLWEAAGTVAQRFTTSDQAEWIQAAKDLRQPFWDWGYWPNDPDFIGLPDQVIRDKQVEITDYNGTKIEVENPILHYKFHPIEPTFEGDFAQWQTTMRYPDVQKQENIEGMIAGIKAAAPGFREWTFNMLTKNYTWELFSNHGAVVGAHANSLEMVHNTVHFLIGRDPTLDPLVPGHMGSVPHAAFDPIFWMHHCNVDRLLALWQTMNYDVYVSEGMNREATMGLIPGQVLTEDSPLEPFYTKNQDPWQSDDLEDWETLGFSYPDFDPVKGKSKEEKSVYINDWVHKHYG
row,SMILES,"mushroom tyrosinase inhibitory effect, in words"
1,"COc1cc2c(cc1OC)O[C@H](c1ccc(O)cc1)CC2 [Compound 1, (2S)-4’-hydroxy-6,7-dimethoxyflavan]",moderate or weak activity
2,"COc1ccc2c(c1C)OC(C1(O)C=CC(=O)CC1)CC2 [Compound 4, (2S,1′S)-4-hydroxy-4-(7-methoxy-8-methylchroman-2-yl)-cyclohex-2-enone]",moderate or weak activity
3,"O=c1cc(-c2ccc(O)c(O)c2)oc2cc(O)cc(O)c12 [Compound 20, luteolin]",more substantial inhibitory effect against mushroom tyrosinase than arbutin
4,"COc1ccc2c(c1)O[C@H](c1ccccc1O)CC2 [Compound 3, (2S)-2’-hydroxy-7-methoxyflavan]",moderate or weak activity
5,"O=C1C[C@@H](c2ccc(O)cc2)Oc2cc(O)ccc21 [Compound 15, (2S)-liquiritigenin]",more substantial inhibitory effect against mushroom tyrosinase than arbutin
6,"COc1ccc([C@@H]2CCc3cc(OC)c(O)cc3O2)cc1O [Compound 13, (2S)-7,3′-dihydroxy-6,4’-dimethoxyflavan]",moderate or weak activity
7,"COc1ccc2c(c1C)O[C@H](c1cc(O)c(OC)c(O)c1)CC2 [Compound 12, (2S)-3’,5’-dihydroxy-7,4’-dimethoxy-8-methylflavan]",moderate or weak activity
8,"O=c1cc(-c2ccc(O)cc2)oc2cc(O)cc(O)c12 [Compound 21, apigenin]",more substantial inhibitory effect against mushroom tyrosinase than arbutin
9,"Cc1c(O)ccc2c1O[C@H](c1ccc(O)cc1)CC2 [Compound 10, (2S)-7,4’-dihydroxy-8-methylflavan]",moderate or weak activity
10,"COc1ccc2c(c1C)O[C@H](c1ccc(O)c(O)c1)CC2 [Compound 2, (2S)-3’,4’-dihydroxy-7-methoxy-8-methylflavan]",more substantial inhibitory effect against mushroom tyrosinase than arbutin
11,"CC(=O)c1c(C)cc2c(c1O)C(=O)CCC2O (stereo not shown) [Compound 41, 7-acetyl-4,8-dihydroxy-6-methyl-1-tetralone]",moderate or weak activity
12,"Oc1ccc([C@@H]2CCc3ccc(O)cc3O2)cc1 [Compound 8, (2S)-7,4’-dihydroxyflavan]",moderate or weak activity

# Same assay, conditions: substrate 2 mM L-tyrosine; absorbance at 490 nm; read-out: IC50 (mushroom tyrosinase inhibitory effect)
row,SMILES,IC50
1,"O=C1C[C@@H](c2ccc(O)cc2)Oc2cc(O)ccc21 [Compound 15, (2S)-liquiritigenin]",109 ± 6.2 µM
